Measurements published in patent publication US20260232684A1, “FLT3 INHIBITORS AND METHODS OF USING THE SAME” (BIOVENTURES, LLC, priority 2023, published 2026).

What was measured:
[1] = test system: normal donor bone marrow mononuclear cells (BM-MNC); experiment: Colony forming unit assay of normal bone marrow
Experimental: FIG. 2. […] Normal bone marrow mononuclear cells (BM-MNC) were purchased from StemCell Technologies. 30,000 cells were plated in methylcellulose with increasing concentrations of either gilteritinib, 1, or 2. Blast forming unit-erythroid (BFU-E) and colony forming unit-granulocyte (CFU-G) were counted after 14 days incubation. Assay was completed in triplicate with three independent blood donors. Data shown is cumulated from all independent experiments. Error bars show one standard deviation and p values compared to control were calculated using a Student's t-test. NS indicates an insignificant p value, * indicates p value≤0.05, ** indicates p value≤0.01, *** indicates p value≤0.001, **** indicates p value≤0.0001
Bone marrow mononuclear cells (BM-MNC) of healthy donors (n=3) were purchased from StemCell Technologies (Vancouver, Canada). Cells were plated in a 35 mm dish in triplicate with methylcellulose medium at a concentration previously determined to form approximately 100 total colonies, usually 30,000 cells/mL and containing the appropriate amount of drug. Dishes were incubated for 14-15 days and visually assessed for erythrocyte burst-forming units and granulocyte-macrophage colony-forming units.

[2] = test system: Molm-14 F691L cells stably expressing firefly luciferase; experiment: Circulating tumor model, Molm14 F691L luciferase; type: in vivo; settings: mice
Experimental: FIG. 7. […] Molm14 F691L stably expressing FLuc9 were engrafted in mice through tail vein injection. Mice were imaged once every three days.
Molm-14 F691L cells stably expressing firefly luciferase were injected into the tail vein of NSG mice and tumor growth was monitored through bioluminescence.

Molm14 D835Y cells = experiment: Cell viability assay (CellTiter GLO), Molm14 D835Y; type: cell-based, human; settings: 48 hours
Experimental: (§1) FIG. 1. […] Cells were treated with inhibitor at increasing log doses (0.1 nM-10 μM) for 48 hours. Cell viability was analyzed through CellTiter GLO. […] Cells were exposed to increasing amounts of each drug for 2 hours. GAPDH1 represents loading control for phospho-ERK and ERK blots. GAPDH2 represents loading control for phosphor-STAT5, STAT5, phospho-S6 and S6. Each experiment was completed in triplicate. Representative images are shown.
(§2) FIG. 5. […] Cells were dosed with inhibitor at increasing log doses (0.1 nM-10 μM) for 48 hours. Cell viability was analyzed through CellTiter GLO.
(§3) MV-4-11 and parental Molm-14 cells were a gift from Dr. Scott Kogan (University of California, San Francisco). HL60 and K562 cell lines were obtained from Charles Sawyers. […] Stable Ba/F3 lines were generated by retroviral infection as previously described (5). All cell lines were tested to be mycoplasma free and human cell lines were authenticated through STR profiling completed at the University of California, Berkeley.
(§4) Each triplicate was either dosed with drug or DMSO vehicle control. Drug dosing was completed at log doses ranging from 0.1 nM-10 μM. Cell viability was assessed after 48 hours using CellTiter GLO (Promega). Viability values were normalized to the vehicle control average. Numerical IC50 values were calculated in GraphPad Prism 7.

Molm14 F691L cells = experiment: Cell viability assay (CellTiter GLO), Molm14 F691L; type: cell-based, human; settings: 48 hours
Experimental: as §1, §2, §3, §4

Structure (SMILES)	impact on CFU-G counts/growth ([1]; equivalent multiples of Molm14 IC50, 14 days, three healthy donors)	impact on BFU-E counts/growth ([1]; human, 14 days)	maximally tolerated dose [2] [mg/kg]	activity in cell viability assay (IC50, FIG. 1A/5B), in words (Molm14 D835Y cells)	activity in cell viability assay (IC50, FIG. 1A/5B), in words (Molm14 F691L cells)
CCc1nc(C(N)=O)c(Nc2ccc(N3CCC(N4CCN(C)CC4)CC3)c(OC)c2)nc1NC1CCOCC1 [gilteritinib, reference compound]	substantial impairment in BFU-E and CFU-G counts at 50× and 100×IC50	substantial impairment in BFU-E and CFU-G counts at 50× and 100×IC50	33	–	–
CC(C)(C)c1cc(NC(=O)Nc2ccc(-c3cn4c(n3)sc3cc(OCCN5CCOCC5)ccc34)cc2)no1 [quizartinib, reference compound]	–	–	–	severely diminished activity	severely diminished activity
